Key:
Assay type in all cases: in vivo
[1] = test system: Myzus persicae (Green peach aphids); assay: Curative control of Myzus persicae mixed aged population on Chinese cabbage, spray application; conditions: 120 and 60 g ai/ha
Excerpt: (§1) Examples 1 to 3 describe biological tests relating to the curative and preventative control of a series of insects with the spray application of dilutions of a formulation containing clethodim as sole active ingredient (ai) (EC240 formulation (SELECT®)) in combination with OCHIMAR adjuvant (Syngenta—alkyl ester of phosphoric acid (752 g/L EC) formulation) to bean or cabbage plants infested with Bemisia tabaci, Frankliniella occidentalis or Myzus persicae (four replicates). The testing protocols and insect control effects are shown below.
Curative control of Myzus persicae (Green peach aphids), mixed aged population, on Chinese cabbage (BBCH19).
All adjuvant containing treatments were applied with 250 mL adjuvant (OCHIMA®) per hectare.

[2] = test system: Bemisia tabaci (Silverleaf whitefly); assay: Curative control of Bemisia tabaci second nymph stage (N2) on French beans, spray application
Excerpt: as §1
Curative control of Bemisia tabaci (Silverleaf whitefly), second nymph stage (N2), treated on French beans (BBCH12):
All treatments (including check) were applied with 250 ml adjuvant (OCHIMA®) per hectare.

[3] = test system: Frankliniella occidentalis (Western flower thrips); assay: Frankliniella occidentalis mixed aged population infested on French beans three hours after treatment, plant damage evaluation; conditions: 60 g ai/ha; plant damage by feeding on leaf tissue
Excerpt: as §1
Frankliniella occidentalis (Western flower thrips), mixed aged population, infested on French beans (BBCH12) three hours after treatment.
All treatments (including check) were applied with 250 mL adjuvant (OCHIMA®) per hectare. The above table relates to an evaluation of plant damage caused by Western flower thrips feeding on leaf tissue.

## CCSC(C)CC1CC(=O)C(/C(CC)=N\OC/C=C/Cl)=C(O)C1 (racemic) [clethodim, (5RS)-2-[(1EZ)-N-{[(2E)-3-chloroallyl]oxy}propanimidoyl]-5-[(2RS)-2-(ethylthio)propyl]-3-hydroxycyclohex-2-en-1-one]
[1]
  control effect against aphids against the check treatment: at best minor
[2]; data in Tables 1 to 3
  efficacy against whiteflies compared to thrips or aphids: surprising selective efficacy
[2]; two ai application rates (120 and 60 g ai/ha)
  control effect against whiteflies against the check treatment: significant control effect
[3]
  control effect against Western flower thrips against the check treatment: at best minor

Reference: patent US20240224995A1, “USE OF CLETHODIM FOR INSECT CONTROL” (SYNGENTA CROP PROTECTION AG, priority 2021, published 2024)
